Results from ChEMBL document CHEMBL5036341, “Design, synthesis and biological evaluation of aminopyrimidine derivatives bearing a 4,5,6,7-tetrahydrothieno [3,2-c]pyridine as potent EGFR inhibitors” (Eur J Med Chem, 2021).
Active and inactive are the calls of the source. The calls are words filed in the database; no cut-off is given here.

Assays:
Homo sapiens [1] = organism: Homo sapiens; assay: Inhibition of EGFR L858R/T790M double mutant (unknown origin) measured at 0.1 uM by ELISA
Homo sapiens [2] = organism: Homo sapiens; assay: Inhibition of EGFR L858R/T790M double mutant (unknown origin) measured at 1 uM by ELISA
A-431 = assay: Cytotoxicity against human A-431 cells assessed as reduction in cell viability measured by MTT assay; assay type: functional, cell-based
NCI-H1975 [3] = assay: Cytotoxicity against human NCI-H1975 cells assessed as reduction in cell viability measured by MTT assay; assay type: functional, cell-based
A549 [4] = assay: Cytotoxicity against human A549 cells assessed as reduction in cell viability measured by MTT assay; assay type: functional, cell-based
[5] = biological target: Epidermal growth factor receptor (Homo sapiens, UniProt P00533); assay: Inhibition of wild type EGFR (unknown origin) measured by ELISA
Homo sapiens [6] = organism: Homo sapiens; assay: Selectivity ratio of IC50 for EGFR L858R/T790M double mutant (unknown origin) to IC50 for wildtype EGFR (unknown origin) measured by ELISA
[7] = Inhibition of EGFR L858R/T790M double mutant (unknown origin) measured by ELISA; set-up: species or system Homo sapiens
A549 [8] = assay: Antiproliferative activity against human A549 cells assessed as reduction in cell growth incubated for 24 hrs by AO/EB staining based inverted fluorescence microscopic analysis; assay type: functional; settings: dose 1-25 µM
A549 [9] = assay: Induction of apoptosis in human A549 cells assessed as chromatin contraction at 25 uM measured after 24 hrs by AO/EB staining based inverted fluorescence microscopic analysis; assay type: functional, cell-based
[10] = Inhibition of EGFR L858R/T790M/C797S triple mutant (unknown origin) measured by ELISA; set-up: species or system Homo sapiens
A549 [11] = assay: Inhibition of cell migration in human A549 cells measured after 12 to 36 hours by fluorescence microscopy based wound healing assay; assay type: functional; settings: dose 1-5 µM, time 12-36 hrs
NCI-H1975 [12] = assay: Induction of apoptosis in human NCI-H1975 cells assessed as early apoptotic cells at 0.2 uM measured after 48 hrs by annexinV-FITC and propidium iodide double staining based flow cytometry analysis (reference value: 3.24 %); assay type: functional
NCI-H1975 [13] = assay: Induction of apoptosis in human NCI-H1975 cells assessed as late apoptotic cells at 5 uM measured after 48 hrs by annexinV-FITC and propidium iodide double staining based flow cytometry analysis (reference value: 1.56 %); assay type: functional
NCI-H1975 [14] = assay: Induction of apoptosis in human NCI-H1975 cells assessed as late apoptotic cells at 0.2 uM measured after 48 hrs by annexinV-FITC and propidium iodide double staining based flow cytometry analysis (reference value: 1.56 %); assay type: functional
NCI-H1975 [15] = assay: Induction of apoptosis in human NCI-H1975 cells assessed as necrotic cells at 1 uM measured after 48 hrs by annexinV-FITC and propidium iodide double staining based flow cytometry analysis (reference value: 0.28 %); assay type: functional
NCI-H1975 [16] = assay: Induction of apoptosis in human NCI-H1975 cells assessed as early apoptotic cells at 1 uM measured after 48 hrs by annexinV-FITC and propidium iodide double staining based flow cytometry analysis (reference value: 3.24 %); assay type: functional
NCI-H1975 [17] = assay: Induction of apoptosis in human NCI-H1975 cells assessed as live cells at 5 uM measured after 48 hrs by annexinV-FITC and propidium iodide double staining based flow cytometry analysis (reference value: 94.92 %); assay type: functional
NCI-H1975 [18] = assay: Induction of apoptosis in human NCI-H1975 cells assessed as early apoptotic cells at 5 uM measured after 48 hrs by annexinV-FITC and propidium iodide double staining based flow cytometry analysis (reference value: 3.24 %); assay type: functional
NCI-H1975 [19] = assay: Induction of apoptosis in human NCI-H1975 cells assessed as necrotic cells at 5 uM measured after 48 hrs by annexinV-FITC and propidium iodide double staining based flow cytometry analysis (reference value: 0.28 %); assay type: functional
NCI-H1975 [20] = assay: Induction of apoptosis in human NCI-H1975 cells assessed as live cells at 0.2 uM measured after 48 hrs by annexinV-FITC and propidium iodide double staining based flow cytometry analysis (reference value: 94.92 %); assay type: functional
NCI-H1975 [21] = assay: Induction of apoptosis in human NCI-H1975 cells assessed as late apoptotic cells at 1 uM measured after 48 hrs by annexinV-FITC and propidium iodide double staining based flow cytometry analysis (reference value: 1.56 %); assay type: functional
NCI-H1975 [22] = assay: Induction of apoptosis in human NCI-H1975 cells assessed as live cells at 1 uM measured after 48 hrs by annexinV-FITC and propidium iodide double staining based flow cytometry analysis (reference value: 94.92 %); assay type: functional
NCI-H1975 [23] = assay: Induction of apoptosis in human NCI-H1975 cells assessed as necrotic cells at 0.2 uM measured after 48 hrs by annexinV-FITC and propidium iodide double staining based flow cytometry analysis (reference value: 0.28 %); assay type: functional

Sequence of Epidermal growth factor receptor (P00533 whole entry): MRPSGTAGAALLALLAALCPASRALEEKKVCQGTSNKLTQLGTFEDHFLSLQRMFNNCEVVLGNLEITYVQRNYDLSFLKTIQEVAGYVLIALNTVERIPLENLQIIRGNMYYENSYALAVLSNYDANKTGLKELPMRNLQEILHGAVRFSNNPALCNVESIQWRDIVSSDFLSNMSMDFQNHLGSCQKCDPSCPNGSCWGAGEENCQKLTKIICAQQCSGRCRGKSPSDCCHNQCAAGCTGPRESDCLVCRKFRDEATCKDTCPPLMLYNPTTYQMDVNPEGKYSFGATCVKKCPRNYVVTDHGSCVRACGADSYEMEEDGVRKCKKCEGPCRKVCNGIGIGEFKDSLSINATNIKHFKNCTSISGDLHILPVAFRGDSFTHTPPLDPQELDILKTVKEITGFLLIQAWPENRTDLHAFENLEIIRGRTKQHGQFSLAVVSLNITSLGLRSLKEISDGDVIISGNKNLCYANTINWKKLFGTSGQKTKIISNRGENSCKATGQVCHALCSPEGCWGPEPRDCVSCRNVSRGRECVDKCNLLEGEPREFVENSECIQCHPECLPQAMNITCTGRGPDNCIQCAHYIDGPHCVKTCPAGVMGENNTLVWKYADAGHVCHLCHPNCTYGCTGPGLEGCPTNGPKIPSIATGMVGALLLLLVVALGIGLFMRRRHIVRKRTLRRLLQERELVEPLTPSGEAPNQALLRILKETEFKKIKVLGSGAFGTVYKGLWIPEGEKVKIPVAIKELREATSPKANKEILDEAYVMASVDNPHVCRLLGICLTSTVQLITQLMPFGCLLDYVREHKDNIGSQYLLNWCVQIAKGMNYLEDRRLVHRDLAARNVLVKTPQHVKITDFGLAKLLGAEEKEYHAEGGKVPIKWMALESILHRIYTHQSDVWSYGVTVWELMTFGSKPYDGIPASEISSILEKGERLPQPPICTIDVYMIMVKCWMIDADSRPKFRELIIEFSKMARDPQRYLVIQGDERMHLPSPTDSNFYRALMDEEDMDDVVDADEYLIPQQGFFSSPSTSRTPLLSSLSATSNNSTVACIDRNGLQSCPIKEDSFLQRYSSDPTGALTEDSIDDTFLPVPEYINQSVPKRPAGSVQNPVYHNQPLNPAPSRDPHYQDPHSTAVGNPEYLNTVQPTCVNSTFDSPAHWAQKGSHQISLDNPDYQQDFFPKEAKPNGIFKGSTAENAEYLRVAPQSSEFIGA

## CCN(CC)CC(=O)Nc1ccc(Nc2nccc(N3CCc4sccc4C3)n2)c(OC)c1
Homo sapiens [1]
  inhibition: 3.6%
Homo sapiens [2]
  inhibition: 20.3%

## COc1cc(NC(=O)CN2CCOCC2)ccc1Nc1nccc(N2CCc3sccc3C2)n1
Homo sapiens [1]
  inhibition: 3.2%
Homo sapiens [2]
  inhibition: 13.9%

## COc1cc(N(C)CCN(C)C)c(NC(=O)/C=C/C(C)C)cc1Nc1ncc(Cl)c(N2CCc3sccc3C2)n1
A-431
  IC50: 21300 nM
NCI-H1975 [3]
  IC50: 472 nM
A549 [4]
  IC50: 4590 nM

## CCC(=O)Nc1ccc(OC)c(Nc2ncc(Cl)c(N3CCc4sccc4C3)n2)c1
A-431
  IC50: > 200000 nM
NCI-H1975 [3]
  IC50: 15200 nM
A549 [4]
  IC50: 31300 nM

## C=CC(=O)Nc1cc(Nc2nccc(N3CCc4sccc4C3)n2)c(OC)cc1N1CCCC1
Homo sapiens [1]
  inhibition: 14.9%
Homo sapiens [2]
  inhibition: 43.5%

## CCN(CC)C/C=C/C(=O)Nc1ccc(OC)c(Nc2nccc(N3CCc4sccc4C3)n2)c1
Homo sapiens [1]
  inhibition: 36.8%
Homo sapiens [2]
  inhibition: 77.5%

## COc1cc(NC(=O)CN2CCN(CCO)CC2)ccc1Nc1nccc(N2CCc3sccc3C2)n1
Homo sapiens [1]
  inhibition: 10.9%
Homo sapiens [2]
  inhibition: 45.2%

## C/C=C/C(=O)Nc1cc(Nc2ncc(Cl)c(N3CCc4sccc4C3)n2)c(OC)cc1N(C)CCN(C)C
A-431
  IC50: 152 nM
NCI-H1975 [3]
  IC50: 133 nM
[5]
  IC50: 353 nM
Homo sapiens [6]
  Ratio IC50: 2.9
[7]
  IC50: 12.1 nM
A549 [4]
  IC50: 251 nM

## COc1cc(NC(=O)CN(C)C)ccc1Nc1nccc(N2CCc3sccc3C2)n1
Homo sapiens [1]
  inhibition: 5%
Homo sapiens [2]
  inhibition: 22.5%

## C=C(Cl)C(=O)Nc1cc(Nc2ncc(Cl)c(N3CCc4sccc4C3)n2)c(OC)cc1N(C)CCN(C)C
A-431
  IC50: 13700 nM
NCI-H1975 [3]
  IC50: 92 nM
[5]
  IC50: 96.3 nM
A549 [8]
  Activity: Dose-Dependent Effect
A549 [9]
  Activity: Active
Homo sapiens [6]
  Ratio IC50: 26.7
[10]
  IC50: 466 nM
A549 [11]
  inhibition: Dose-Dependent Effect
[7]
  IC50: 3.6 nM
A549 [4]
  IC50: 654 nM

## C=CC(=O)Nc1cc(Nc2nccc(N3CCc4sccc4C3)n2)c(OC)cc1N(CC)CC
Homo sapiens [1]
  inhibition: 13.5%
Homo sapiens [2]
  inhibition: 42.6%

## C=CC(=O)Nc1cc(Nc2nccc(N3CCc4sccc4C3)n2)c(OC)cc1N(C)C
Homo sapiens [1]
  inhibition: 2.3%
Homo sapiens [2]
  inhibition: 18.2%

## C=CC(=O)Nc1cc(Nc2nccc(N3CCc4sccc4C3)n2)c(OC)cc1N(C)CCN(C)C
Homo sapiens [1]
  inhibition: 54.1%
Homo sapiens [2]
  inhibition: 76.3%

## C=CC(=O)Nc1cc(Nc2nccc(N3CCc4sccc4C3)n2)c(OC)cc1N1CCOCC1
Homo sapiens [1]
  inhibition: 20.9%
Homo sapiens [2]
  inhibition: 50.6%

## CCC(=O)Nc1cc(Nc2nccc(N3CCc4sccc4C3)n2)c(OC)cc1N(C)CCN(C)C
Homo sapiens [1]
  inhibition: 67.7%
Homo sapiens [2]
  inhibition: 82.2%

## C=CC(=O)Nc1ccc(OC)c(Nc2ncc(Cl)c(N3CCc4sccc4C3)n2)c1
A-431
  IC50: 90900 nM
NCI-H1975 [3]
  IC50: 786 nM
A549 [4]
  IC50: 6910 nM

## CCC(=O)Nc1cc(Nc2ncc(Cl)c(N3CCc4sccc4C3)n2)c(OC)cc1N(C)CCN(C)C
NCI-H1975 [12]
  Activity: 5.23%
NCI-H1975 [13]
  Activity: 11.42%
Homo sapiens [1]
  inhibition: 97.9%
A-431
  IC50: 2190 nM
NCI-H1975 [3]
  IC50: 86 nM
NCI-H1975 [14]
  Activity: 3.44%
[5]
  IC50: 170 nM
NCI-H1975 [15]
  Activity: 0.84%
NCI-H1975 [16]
  Activity: 7.49%
NCI-H1975 [17]
  Activity: 71.42%
A549 [8]
  Activity: Dose-Dependent Effect
A549 [9]
  Activity: Active
Homo sapiens [6]
  Ratio IC50: 42.5
NCI-H1975 [18]
  Activity: 15.91%
NCI-H1975 [19]
  Activity: 1.25%
NCI-H1975 [20]
  Activity: 90.82%
NCI-H1975 [21]
  Activity: 4.98%
NCI-H1975 [22]
  Activity: 86.69%
[10]
  IC50: 360 nM
Homo sapiens [2]
  inhibition: 99.2%
A549 [11]
  inhibition: Dose-Dependent Effect
NCI-H1975 [23]
  Activity: 0.51%
[7]
  IC50: 4 nM
A549 [4]
  IC50: 460 nM

## C=CC(=O)Nc1cc(Nc2ncc(Cl)c(N3CCc4sccc4C3)n2)c(OC)cc1N1CCN(C)CC1
A-431
  IC50: > 50000 nM
NCI-H1975 [3]
  IC50: 197 nM
[5]
  IC50: > 4000 nM
Homo sapiens [6]
  Ratio IC50: > 13.6
[10]
  IC50: 659 nM
[7]
  IC50: 294 nM
A549 [4]
  IC50: 1560 nM

## COc1cc(NC(=O)CN(C)CCN(C)C)ccc1Nc1nccc(N2CCc3sccc3C2)n1
Homo sapiens [1]
  inhibition: 20.9%
Homo sapiens [2]
  inhibition: 69.7%

## COc1ccc(NC(=O)/C=C/CN(C)C)cc1Nc1nccc(N2CCc3sccc3C2)n1
Homo sapiens [1]
  inhibition: 42.2%
Homo sapiens [2]
  inhibition: 80.1%

## C=CC(=O)Nc1cc(Nc2nccc(-c3cn(C)c4ccccc34)n2)c(OC)cc1N(C)CCN(C)C [OSIMERTINIB]
Homo sapiens [1]
  inhibition: 97.3%
NCI-H1975 [3]
  IC50: […]
[10]
  IC50: 129 nM
Homo sapiens [2]
  inhibition: 99.5%
[7]
  IC50: 3.4 nM

## COc1cc(NC(=O)CN2CCN(C)CC2)ccc1Nc1nccc(N2CCc3sccc3C2)n1
Homo sapiens [1]
  inhibition: 16.3%
Homo sapiens [2]
  inhibition: 58.3%

## CCN1CCN(CC(=O)Nc2ccc(Nc3nccc(N4CCc5sccc5C4)n3)c(OC)c2)CC1
Homo sapiens [1]
  inhibition: 9.9%
Homo sapiens [2]
  inhibition: 36.6%

## C=CC(=O)Nc1cc(Nc2nccc(N3CCc4sccc4C3)n2)c(OC)cc1N1CCN(CC)CC1
Homo sapiens [1]
  inhibition: 5.4%
Homo sapiens [2]
  inhibition: 15.8%

## COc1cc(N(C)CCN(C)C)c(NC(=O)C=C(C)C)cc1Nc1ncc(Cl)c(N2CCc3sccc3C2)n1
A-431
  IC50: > 50000 nM
NCI-H1975 [3]
  IC50: 280 nM
[7]
  IC50: 16.3 nM
A549 [4]
  IC50: 5100 nM

## C=CC(=O)Nc1cc(Nc2ncc(Cl)c(N3CCc4sccc4C3)n2)c(OC)cc1N(C)CCN(C)C
Homo sapiens [1]
  inhibition: 85%
A-431
  IC50: 5490 nM
NCI-H1975 [3]
  IC50: 242 nM
[5]
  IC50: 6.4 nM
Homo sapiens [6]
  Ratio IC50: 7
Homo sapiens [2]
  inhibition: 97%
[7]
  IC50: 3.9 nM
A549 [4]
  IC50: 166 nM

## COc1cc(NC(=O)CN2CCC(C)CC2)ccc1Nc1nccc(N2CCc3sccc3C2)n1
Homo sapiens [1]
  inhibition: 4.5%
Homo sapiens [2]
  inhibition: 26.1%

## C=CC(=O)Nc1cc(Nc2nccc(N3CCc4sccc4C3)n2)c(OC)cc1N1CCN(C)CC1
Homo sapiens [1]
  inhibition: 33.5%
Homo sapiens [2]
  inhibition: 56.5%
